Results on one compound are retold here after ChEMBL document CHEMBL6096732 (J Med Chem, 2025).

Activity calls are given as the source filed them. No cut-off for these calls is given here.

One data set deals with Histone deacetylase 1 (Homo sapiens, UniProt Q13547). In words: Inhibition of recombinant HDAC1 (unknown origin) using Boc-Lys(acetyl)-AMC as substrate preincubated for 1 hr followed by substrate addition and measured after 2 hrs by fluorescence based micro plate reader analysis.
For data set [1], the system named is B16-F10. Briefly: Inhibition of cell migration in mouse B16-F10 cells assessed as wound area at 20 uM incubated for 24 hrs by wound healing assay (reference value: 50.36 +/- 1.68 %). The class given is functional. Also on record: scale not given: the % may be the effect or the level left.
A short description of data set [2]: MRT (0 to infinity) in male Sprague-Dawley rat at 20 mg/kg, po measured after 12 hrs by LC-MS/MS analysis. To be noted: in vivo. Format: ADME, organism-based.
Data set [3] can be described thus: VRT (0 to infinity) in male Sprague-Dawley rat at 2 mg/kg, iv measured after 12 hrs by LC-MS/MS analysis. Format: ADME, organism-based. The settings on record: in vivo.
Data set [4] has as its target T1, Histone deacetylase 3 (Homo sapiens, UniProt O15379). The settings on record: dose 500.0 nM, time 3.0 hrs.
Data set [5] can be described thus: Cmax in male Sprague-Dawley rat at 20 mg/kg, po measured after 12 hrs by LC-MS/MS analysis. The class given is ADME, organism-based. To be noted: in vivo.
In the next data set the test system is Mus musculus. Briefly: Immunomodulatory activity in male C57BL/6 mouse model implanted with mouse B16-F10 cells assessed as increase in CD3+ CD4+ T cells in tumor at 50 mg/kg, po co-administered with NP-19 as once daily dosage via gavage for 14 days by flow cytometric analysis (reference value: 3.1 %). Format: functional. The settings on record: time 14 day. For orientation: In flow cytometry, cells or beads pass a laser one at a time.

Data set [6] deals with B16-F10. In words: Cell cycle arrest in mouse B16-F10 cells assessed as accumulation of cells in G1 phase incubated for 48 hrs by RNase A/PI staining based flow cytometric analysis. Format: functional. To be noted: dose 5-20 µM.
For data set [7], the target named is T2, Protein deacetylase HDAC6 (Homo sapiens) (UniProt Q9UBN7).
T2 sequence (whole entry): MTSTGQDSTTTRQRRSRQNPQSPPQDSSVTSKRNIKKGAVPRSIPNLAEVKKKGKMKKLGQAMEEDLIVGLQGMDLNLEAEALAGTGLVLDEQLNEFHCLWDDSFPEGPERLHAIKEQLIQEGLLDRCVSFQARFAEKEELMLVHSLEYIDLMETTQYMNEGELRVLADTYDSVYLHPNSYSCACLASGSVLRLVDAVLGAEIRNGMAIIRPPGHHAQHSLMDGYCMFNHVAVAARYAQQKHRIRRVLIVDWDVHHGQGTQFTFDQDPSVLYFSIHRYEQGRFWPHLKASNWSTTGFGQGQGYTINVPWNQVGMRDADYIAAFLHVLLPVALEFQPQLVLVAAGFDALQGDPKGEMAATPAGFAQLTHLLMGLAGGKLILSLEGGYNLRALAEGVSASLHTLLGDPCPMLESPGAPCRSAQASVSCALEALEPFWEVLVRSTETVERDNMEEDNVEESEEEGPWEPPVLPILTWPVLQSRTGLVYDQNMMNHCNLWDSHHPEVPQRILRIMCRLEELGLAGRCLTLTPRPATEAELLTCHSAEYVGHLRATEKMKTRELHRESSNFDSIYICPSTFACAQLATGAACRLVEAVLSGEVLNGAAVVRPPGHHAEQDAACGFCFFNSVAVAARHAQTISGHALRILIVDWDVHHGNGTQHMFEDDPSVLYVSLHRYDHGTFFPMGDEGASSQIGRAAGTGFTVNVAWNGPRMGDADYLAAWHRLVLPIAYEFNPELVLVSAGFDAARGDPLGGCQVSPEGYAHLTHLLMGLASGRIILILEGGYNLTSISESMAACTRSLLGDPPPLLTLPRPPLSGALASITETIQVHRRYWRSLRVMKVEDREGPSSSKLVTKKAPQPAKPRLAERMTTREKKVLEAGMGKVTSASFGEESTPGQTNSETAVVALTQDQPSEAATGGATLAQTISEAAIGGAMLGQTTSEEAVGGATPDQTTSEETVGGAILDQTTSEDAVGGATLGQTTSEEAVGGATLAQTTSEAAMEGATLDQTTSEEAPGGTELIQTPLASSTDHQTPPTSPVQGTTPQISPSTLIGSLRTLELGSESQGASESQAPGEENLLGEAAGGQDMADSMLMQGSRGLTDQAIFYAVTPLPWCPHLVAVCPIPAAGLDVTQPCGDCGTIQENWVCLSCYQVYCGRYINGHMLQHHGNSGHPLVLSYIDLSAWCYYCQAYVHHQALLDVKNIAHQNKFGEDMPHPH
The settings on record: dose 500.0 nM, time 3.0 hrs.

The test system of data set [8] is B16-F10. In words: Anti-invasive activity in mouse B16-F10 cells assessed as reduction in invasive capacity at 5 to 20 uM incubated for 24 to 48 hrs by crystal violet staining based microscopic analysis. The class given is functional, cell-based. The settings on record: dose 5-20 µM, time 24-48 hrs.
The nature of data set [9]: MRT (0 to t) in male Sprague-Dawley rat at 20 mg/kg, po measured after 12 hrs by LC-MS/MS analysis. Format: ADME, organism-based. The settings on record: in vivo.
Data set [10] concerns B16-F10. Briefly: Induction of DNA damage in mouse B16-F10 cells assessed as increase in gamma-H2AX expression at 2 uM incubated for 24 hrs by Western blot analysis. Format: functional, cell-based. On the technique in general: A western blot detects proteins with antibodies after separation by electrophoresis.
Data set [11] addresses Programmed cell death 1 ligand 1 (Mus musculus) (UniProt Q9EP73). Briefly: Induction of PD-L1 degradation in mouse B16-F10 cells assessed as decrease in PD-L1 protein level at 5 uM preincubated with bafilomycin A1 for 4 hrs followed by compound addition and measured after 24 hrs by Western blot analysis. Format: cell-based.
Data set [12] in a line: AUMC (0 to infinity) in male Sprague-Dawley rat at 2 mg/kg, iv measured after 12 hrs by LC-MS/MS analysis. The class given is ADME, organism-based. To be noted: in vivo.
The next data set concerns the target Histone deacetylase 5 (Homo sapiens, UniProt Q9UQL6). In words: Inhibition of recombinant HDAC5 (unknown origin) using Boc-Lys(trifluoroacetyl)-AMC as substrate preincubated for 1 hr followed by substrate addition and measured after 2 hrs by fluorescence based micro plate reader analysis.
Data set [13] is described as follows: Toxicity in female BALB/c mouse model implanted with mouse 4T1 cells assessed as effect on body weight administrated orally as once daily dose via gavage for 14 days. The settings on record: in vivo, po, 336 h, time 14 day.
A short description of data set [14]: Toxicity in male C57BL/6 mouse implanted with mouse B16-F10 cells assessed as histopathological changes in heart at 50 mg/kg, po administered once daily for 14 days by HandE staining based microscopic analysis. The class given is organism-based. The settings on record: in vivo, 336 h, time 14 day.
The next data set has as its system 4T1. In words: Antitumor activity against mouse 4T1 cells implanted in female BALB/c mouse model assessed as induction of DNA damage by measuring increase in gamma-H2AX expression in tumor administrated orally as once daily dose via gavage for 14 days by Western blot analysis. Format: functional, cell-based. The settings on record: route po, time 14.0 day.
Data set [15] can be described thus: Clast in male Sprague-Dawley rat at 2 mg/kg, iv measured after 12 hrs by LC-MS/MS analysis. The class given is ADME, organism-based. To be noted: in vivo, read-out: Clast.
Data set [16] has as its system B16-F10. In words: Effect on acetylated alpha-tubulin expression level in mouse B16-F10 cells at 5 to 20 uM incubated for 24 hrs by Western blot analysis. Format: functional, cell-based. The settings on record: dose 5-20 µM.
Data set [17] has as its target T1, Histone deacetylase 3. In words: Inhibition of recombinant HDAC3 (unknown origin) using Boc-Lys(acetyl)-AMC as substrate preincubated for 1 hr followed by substrate addition and measured after 2 hrs by fluorescence based micro plate reader analysis.

T1 sequence (O15379 whole entry): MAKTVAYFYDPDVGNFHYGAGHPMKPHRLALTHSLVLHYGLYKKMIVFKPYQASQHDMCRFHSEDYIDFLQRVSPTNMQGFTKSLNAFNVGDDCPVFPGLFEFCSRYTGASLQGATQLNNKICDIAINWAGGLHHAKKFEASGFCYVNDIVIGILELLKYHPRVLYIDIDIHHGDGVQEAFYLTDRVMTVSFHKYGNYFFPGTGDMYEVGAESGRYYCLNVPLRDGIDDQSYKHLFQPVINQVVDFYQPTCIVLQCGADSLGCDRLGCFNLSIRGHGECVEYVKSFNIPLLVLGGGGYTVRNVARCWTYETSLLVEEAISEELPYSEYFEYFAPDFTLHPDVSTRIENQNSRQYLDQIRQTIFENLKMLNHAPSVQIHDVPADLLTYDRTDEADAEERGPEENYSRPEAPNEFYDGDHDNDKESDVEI
Chain of Histone deacetylase 5 (Q9UQL6 whole entry): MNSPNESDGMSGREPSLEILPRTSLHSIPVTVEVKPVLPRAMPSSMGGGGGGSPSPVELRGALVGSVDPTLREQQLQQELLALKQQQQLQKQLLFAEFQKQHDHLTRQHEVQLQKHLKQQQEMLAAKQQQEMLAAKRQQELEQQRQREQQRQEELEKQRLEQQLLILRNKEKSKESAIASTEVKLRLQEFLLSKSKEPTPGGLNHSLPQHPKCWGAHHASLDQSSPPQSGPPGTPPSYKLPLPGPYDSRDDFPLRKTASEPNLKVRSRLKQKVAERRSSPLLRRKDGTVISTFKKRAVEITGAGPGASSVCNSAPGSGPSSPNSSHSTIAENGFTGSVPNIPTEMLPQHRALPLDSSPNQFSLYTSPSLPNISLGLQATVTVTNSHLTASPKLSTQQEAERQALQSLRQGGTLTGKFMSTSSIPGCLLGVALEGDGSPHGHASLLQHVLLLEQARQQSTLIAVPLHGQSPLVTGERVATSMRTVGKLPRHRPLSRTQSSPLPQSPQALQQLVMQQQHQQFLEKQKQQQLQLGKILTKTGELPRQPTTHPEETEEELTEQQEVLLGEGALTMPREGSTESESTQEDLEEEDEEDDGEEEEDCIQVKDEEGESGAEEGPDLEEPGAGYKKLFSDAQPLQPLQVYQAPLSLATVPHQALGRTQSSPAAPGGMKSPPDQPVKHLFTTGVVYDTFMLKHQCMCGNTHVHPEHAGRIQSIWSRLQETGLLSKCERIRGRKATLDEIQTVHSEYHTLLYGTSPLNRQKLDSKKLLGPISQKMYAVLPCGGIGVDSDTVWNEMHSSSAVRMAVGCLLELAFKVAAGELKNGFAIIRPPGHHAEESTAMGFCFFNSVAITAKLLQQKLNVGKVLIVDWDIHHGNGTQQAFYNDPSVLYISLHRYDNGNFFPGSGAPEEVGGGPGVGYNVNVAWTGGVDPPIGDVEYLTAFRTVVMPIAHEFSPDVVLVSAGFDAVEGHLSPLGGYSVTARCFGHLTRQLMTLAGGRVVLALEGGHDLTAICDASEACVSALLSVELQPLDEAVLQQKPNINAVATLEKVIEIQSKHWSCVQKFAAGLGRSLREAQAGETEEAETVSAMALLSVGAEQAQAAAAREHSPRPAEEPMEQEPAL
Chain of Histone deacetylase 1 (Q13547 whole entry): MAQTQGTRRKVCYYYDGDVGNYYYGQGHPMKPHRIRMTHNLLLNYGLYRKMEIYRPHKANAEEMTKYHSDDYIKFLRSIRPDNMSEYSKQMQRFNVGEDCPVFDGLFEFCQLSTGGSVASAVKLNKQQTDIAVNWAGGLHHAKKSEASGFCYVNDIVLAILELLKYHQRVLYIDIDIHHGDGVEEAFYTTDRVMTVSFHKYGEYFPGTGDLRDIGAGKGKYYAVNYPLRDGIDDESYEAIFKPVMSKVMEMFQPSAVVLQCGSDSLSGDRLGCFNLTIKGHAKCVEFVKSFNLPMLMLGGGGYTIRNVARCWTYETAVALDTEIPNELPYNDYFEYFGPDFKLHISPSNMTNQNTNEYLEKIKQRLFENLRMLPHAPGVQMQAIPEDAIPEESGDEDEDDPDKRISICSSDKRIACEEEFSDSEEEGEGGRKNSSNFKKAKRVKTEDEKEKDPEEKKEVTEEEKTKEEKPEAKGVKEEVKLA
Chain of Programmed cell death 1 ligand 1 (Mus musculus) (Q9EP73 whole entry): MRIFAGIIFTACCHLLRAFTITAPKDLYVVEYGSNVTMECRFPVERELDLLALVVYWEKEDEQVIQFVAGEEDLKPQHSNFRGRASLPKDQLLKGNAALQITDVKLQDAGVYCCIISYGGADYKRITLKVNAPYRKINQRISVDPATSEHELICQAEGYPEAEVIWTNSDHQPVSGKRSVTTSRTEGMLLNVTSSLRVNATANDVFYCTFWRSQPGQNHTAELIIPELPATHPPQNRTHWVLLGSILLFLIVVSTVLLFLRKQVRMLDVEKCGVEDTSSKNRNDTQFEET

A word on the IC50: it is the concentration needed to halve the response being measured. In general, MRT inf refers to a mean duration of stay, worked out from the concentration-time curve. As usually defined, the inhibition is the change of the read-out against control, counted positive when it falls. As a reminder, the Cmax is the peak of the concentration-time curve. One may read the MRT last as a mean duration of stay, worked out from the concentration-time curve. With `CCCNNC(=O)c1ccc(Cn2c3ccccc3c3c(-c4ccccn4)nc4ccccc4c32)cc1`, the results for the IC50 on Histone deacetylase 1, on Histone deacetylase 5 and on Histone deacetylase 3 [17] were 6.8 µM, > 10 µM and 0.042 µM, respectively. Also, the Activity in the data set with B16-F10 [1] was 5.9%; with Mus musculus, 32%; in the data set with B16-F10 [6], “Dose-dependent-effect”; in [11], “Not active; Compound Degrades Pd-L1 Through Lysosomal Pathway”; in [13], “Non-toxic”; in data set [14] it was “Non-toxic”. The MRT inf in [2] is 4.9 h. The compound also yielded a VRT in data set [3] of 0.664 hr2. Besides, the inhibition on Histone deacetylase 3 [4] is 96%; in [7], 17%. Further, the Cmax in data set [5] was 1390 ng/mL. For the same compound, the result in the data set with B16-F10 [8], in the data set with B16-F10 [10] and in the data set with 4T1 was Active. The same compound had an MRT last at 12 h in data set [9] of 4.43 h. Also, the AUMC in [12] is on record as 630.022 hr.hr.ug/L. Further, the concentration at 12 h in data set [15] turned out to be 0.475 ng/mL. Also, in the data set on B16-F10 [16], the outcome was inactive.
